Measurements as given in patent US3944549A, “Amino derivatives of 1,4-benzodioxan” (priority 1972, dated 1976).
Entries after “also recorded” stand apart in the source; their conditions may differ. Where a name gives a salt, the structure may show the parent alone.

What was measured:
[1] = test system: vertebral, femoral and mesenteric artery flow rates; experiment: Vasodilating and cardiovascular properties on intravenous administration in dogs
Method: During the series of pharmacological tests, the following parameters were used:
Arterial pressure (abbreviated to AP): this parameter, expressed in mm Hg) is evaluated in accordance with the usual conditions.
Arterial resistance: this parameter (expressed in dynes/sec./cm^-^5) is calculated according to the ratio [formula] Cardiac index: this parameter is expressed in (ml/min.)/kg. Systolic index: this parameter is equal to the ratio cardiac index/frequency.
Cardiac work: this parameter (expressed in kgm/min.) is calculated according to the relationship: Cardiac work = average AP (mm Hg) × 1.36 = cardiac output (1/min.) × 10^-^3.
Ratio dp/dt: this parameter corresponds to the variation in pressure expressed in mm Hg per second (in English: Rate of rise of left ventricular pressure).
The technique used to measure the ratio dp/dt is as follows:
The cardiac output is determined in Beagle dogs weighing 10 to 15 kg, anesthetised with pentobarbital, by injecting Carbiogreen (1 mg in 0.5 ml) into the right ventricle. A catheter introduced via the carotid artery into the aorta makes it possible to aspirate arterial blood at the rate of 25 ml/min. and to pass it in front of the photoelectric cell of a Beckman cardiodensitometer. The results are interpreted in accordance with the Hamilton method.
(§1) In the case of intravenous administration, the tests were carried out on 4 anaesthetised dogs. The product is perfused intravenously over the course of 5 minutes at doses of 2.5, 5 and 10 mg/kg and, in one test, is administered intraduodenally at a dose of 10 mg/kg.

man = experiment: Clinical studies in man; format: in vivo; settings: tablets containing 20 mg, 2 to 3 per day
From the text: In clinical studies, good results were obtained in man by administering tablets such as: […]

intestinal barrier = experiment: Intraduodenal administration in dogs: cardiovascular effects and passage through the intestinal barrier; format: in vivo; settings: for passage through the intestinal barrier: intraduodenal, dogs
Method: as §1

[2] = Acute toxicity, intravenous, in mice; settings: mouse, in vivo; for LD50: read-out: LD-50 I.V. in mice; for NOAEL: read-out: Maximum non-toxic dose
adrenergic receptors = experiment: α-blocking action: reversal of the hypertensive effect of adrenalin; format: in vivo, dogs; settings: for α-blocking / α-lytic action: conclusion or summary; for dose from which the product is α-blocking (adrenolytic): intravenously
femoral artery = experiment: Vasodilating properties: injection into the femoral artery in dogs; format: in vivo
Method: On injection into the femoral artery, no effect is observed at doses of less than 100 μg/kg. […] At these doses, no effect is observed on the arterial pressure AP measured in accordance with the usual conditions.
When administered intra-arterially, the product of Example 6 is injected directly into the femoral artery. The flow rate is increased by 200% from a dose of 10 μg.

[3] = test system: femoral artery, vertebral artery; experiment: Flow rates of femoral and vertebral arteries after oral administration in dogs; format: in vivo
[4] = 4 anaesthetised dogs, 2.5, 5 and 10 mg/kg i.v.
[5] = anaesthetised dogs (Nembutal), 2.5 mg/kg i.v. over 5 minutes

OCC(O)CN1CCN(CC2COc3ccccc3O2)CC1 (stereo not drawn) [Example 3, 1-[2-(1,4-Benzodioxanyl)-methyl]-4-(2,3-dihydroxypropyl)-piperazine dihydrochloride]
AP ([1]; i.v., 1 mg to 13 mg/kg): little effect on the AP or a slight hypotension | cardiac output ([1]; i.v., 1 mg to 13 mg/kg): scarcely changed | differential AP ([1]; i.v., 1 mg to 13 mg/kg): An increase in the differential AP | dp/dt ([1]; i.v., 1 mg to 13 mg/kg): an increase in dp/dt | effect on the vertebral flow rate ([1]; i.v., 1 mg to 13 mg/kg): no effect on the vertebral flow rate | ejection time ([1]; i.v., 1 mg to 13 mg/kg): shortening of the ejection time | rise in the pulse rate ([1]; i.v., 1 mg to 13 mg/kg): ≤ 25% | results in man in vascular complaints (man): good results in vascular complaints | cardiovascular variations after intraduodenal administration (intestinal barrier; 10 and 50 mg/kg intraduodenally): the variations described after intravenous injection are found again | passage through the intestinal barrier (intestinal barrier; dihydrochloride): passes easily through the intestinal barrier | LD50 [2]: 260 ± 11 mg/kg | NOAEL [2]: > 170 mg/kg | hypertensive effect of adrenalin (adrenergic receptors; 10 mg/kg intraduodenally): reversal of the hypertensive effect of adrenalin | α-blocking / α-lytic action (adrenergic receptors): α-blocking agent

CCC(=O)OCCN1CCN(CC2COc3ccccc3O2)CC1 (stereo not drawn) [Example 6, 1-[2-(1,4-Benzodioxanyl)-methyl]-4-[2-(propionyloxy)-ethyl]-piperazine dihydrochloride]
femoral flow rate [1, 4]: increased in the tests wherein an increase in the pulse rate is observed | intraventricular pressure [1, 4]: decreased | pulse rate [1, 4]: either is not altered (2 tests) or is increased | ratio dp/dt [1, 4]: decreased | hypotensive effect ([1]; 4 anaesthetised dogs, 2.5, 5 and 10 mg/kg i.v. over 5 minutes): A hypotensive effect proportional to the dose | time in which the femoral flow rate effect disappears ([1]; 4 anaesthetised dogs, i.v.): 15 min | vertebral flow rate ([1]; 4 anaesthetised dogs, i.v.): only increases in one of the two tests wherein the pulse rate was increased | effect on femoral flow rate, duration and reproducibility ([1]; conclusion): of short duration and is not reproducible | mechanism of the vasodilating effect (femoral artery; conclusion): exclusively an alphalytic mechanism | vasodilating effect at higher doses (femoral artery; femoral intra-arterial, up to and including 10 mg, dihydrochloride): do not produce a greater vasodilation; also recorded: maximal from the very start and cannot be increased by higher doses | dose from which flow rate is increased by 200% (femoral artery; injected directly into the femoral artery): 10 µg | activity on intraduodenal administration (intestinal barrier; 10 mg/kg intraduodenally): the activity is found again | passage through the intestinal barrier (intestinal barrier): passes through the intestinal barrier | LD50 [2]: 109 ± 9 mg/kg | α-blocking / α-lytic action (adrenergic receptors): α-blocking product | dose from which the product is α-blocking (adrenolytic) (adrenergic receptors; dogs): 5 mg/kg

CC(=O)OCCN1CCN(CC2COc3ccccc3O2)CC1 (stereo not drawn) [Example 7, 1-[2-(1,4-Benzodioxanyl)-methyl]-4-[2-(acetyloxy)-ethyl]-piperazine dihydrochloride]
hypotension ([1]; from 2.5 mg/kg i.v., both dogs): a hypotension | left ventricular pressure ([1]; from 2.5 mg/kg i.v., both dogs): a decrease in the left ventricular pressure | pulse rate ([1]; from 2.5 mg/kg i.v., both dogs): does not vary markedly | ratio dp/dt ([1]; from 2.5 mg/kg i.v., both dogs): decrease | systolic ejection time ([1]; from 2.5 mg/kg i.v., both dogs): decrease | LD50 [2]: 86 ± 1 mg/kg | NOAEL [2]: 80 mg/kg | α-blocking / α-lytic action (adrenergic receptors): α-lytic | reversal of the hypertension due to adrenalin (adrenergic receptors; from 2.5 mg/kg i.v., dogs): reversal of the hypertension due to adrenalin | dose from which the product is α-blocking (adrenolytic) (adrenergic receptors; dogs): 2.5 mg/kg

c1cnc(N2CCN(CC3COc4ccccc4O3)CC2)nc1 (stereo not drawn) [Example 8, 1-[2-(1,4-Benzodioxanyl)-methyl]-4-(2-pyrimidinyl)-piperazine dihydrochloride]
decrease in the vertebral flow rate [1, 5]: 19% | effect on the mesenteric flow rate [1, 5]: practically no effect | increase in the differential arterial pressure [1, 5]: 50% | tachycardia ([1]; anaesthetised dogs (Nembutal), 2.5 mg/kg i.v. over 5 minutes, increase (+)): 19% | femoral vasodilating effect ([1]; anaesthetised dogs (Nembutal), 2.5 mg/kg i.v. over 5 minutes, slight, increase (+)): 19% | passage into the general circulation ([3]; 10 mg/kg): the product passes into the general circulation | duration of rise in the flow rates ([3]; orally, 1 to 10 mg/kg): 30 min | rise in the femoral flow rate ([3]; orally, 1 to 10 mg/kg): 200% | rise in the vertebral flow rate ([3]; orally, 1 to 10 mg/kg): 60% | flow rate of the femoral artery ([3]; orally, less than 100 μg/kg): does not alter | flow rate of the vertebral artery ([3]; orally, less than 100 μg/kg): does not alter | LD50 [2]: 145 ± 10 mg/kg | α-blocking / α-lytic action (adrenergic receptors): α-blocking action | hypertensive effect of adrenalin (adrenergic receptors; dogs anaesthetised by Nembutal): the hypertensive effect of adrenalin is reversed
